According to patent publication US4760136A, “Chartreusin derivatives and salts thereof” (Ishihara Sangyo Kaisha, Ltd., priority 1984, dated 1988):
Counter-ions that a name gives are not always drawn.

Tests used:
[1] = Acute toxicity, intravenous (once), ddY mice; type: in vivo; settings: mouse, in vivo, iv, formulated per Preparation Example
Source text: In Table 7 are shown acute toxicity values (LD50, mg/kg) in ddY mice in the case of intravenously administering (once) each of the compounds of this invention in the form of preparations shown in the Preparation Examples shown in Table 7.

[2] = test system: P-388 leukemia cells; assay: Antitumor activity: P-388 leukemia cells inoculated intraperitoneally, drug administered intravenously, BDF1 mice; type: in vivo; settings: Mus musculus, P388, iv, BDF1 mice, P-388 i.p., read-out: T/C (%) of MST; for response vs control in vivo at 80 mg/kg: dose f: 80 mg/kg × 3, i.v. on days 1, 5 and 9; for response vs control in vivo at 60 mg/kg: dose e: 60 mg/kg × 3, i.v. on days 1, 5 and 9; for response vs control in vivo at 10 mg/kg: dose a: 10 mg/kg × 3, i.v. on days 1, 5 and 9; for response vs control in vivo at 20 mg/kg: dose b: 20 mg/kg × 3, i.v. on days 1, 5 and 9; for response vs control in vivo at 40 mg/kg: dose c: 40 mg/kg × 3, i.v. on days 1, 5 and 9
Summary of the method: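 Drug dosing was intravenous on the first, fifth and ninth days after intraperitoneal inoculation of P-388 leukemia cells (1×10^6 per mouse) into BDF1 mice. Vehicles were physiological saline alone, or saline with small amounts of sodium carboxymethyl cellulose or Tween-80.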

| SMILES | LD50 [1] [mg/kg] | response vs control in vivo at 80 mg/kg [2] [%] | response vs control in vivo at 60 mg/kg [2] [%] | response vs control in vivo at 10 mg/kg [2] [%] | response vs control in vivo at 20 mg/kg [2] [%] | response vs control in vivo at 40 mg/kg [2] [%] |
| --- | --- | --- | --- | --- | --- | --- |
| COC1C(O)C(C)OC(OC2C(Oc3cccc4c(OC(=O)CCNC=O)c5c(=O)oc6ccc(C)c7c(=O)oc(c34)c5c67)OC(C)C3OC(C)(C)OC32)C1O (stereo not drawn) [Compound No. 48, 6-O-(N-formyl-β-alanyl)-3',4'-O-isopropylidene-chartreusin] | ≥ 120 | 172 | – | – | – | – |
| COC1C(O)C(C)OC(OC2C(Oc3cccc4c(OC(C)=O)c5c(=O)oc6ccc(C)c7c(=O)oc(c34)c5c67)OC(C)C3OC(C)(C)OC32)C1O (centres unmarked) [Compound No. 203, 6-O-Acetyl-3',4'-O-Isopropylidene-Chartreusin] | ≥ 60 | – | 180 | – | – | – |
| COC(=O)c1ccc(C(=O)Oc2c3cccc(O[C@@H]4O[C@H](C)[C@@H]5OC(c6ccco6)O[C@@H]5[C@H]4O[C@H]4O[C@H](C)[C@H](O)[C@H](OC)[C@H]4O)c3c3oc(=O)c4c(C)ccc5oc(=O)c2c3c54)cc1 (some centres unmarked) [compound 211] | ≥ 80 | 176 | – | – | – | – |
| COC1C(O)C(C)OC(OC2C(Oc3cccc4c(OC(=O)CCNC(=O)CN)c5c(=O)oc6ccc(C)c7c(=O)oc(c34)c5c67)OC(C)C3OC(c4cccc(F)c4)OC32)C1O (stereo not drawn) [compound 33, 6-O-(glycyl-β-alanyl)-3',4'-O-(m-fluorobenzylidene)-chartreusin phosphate] | ≥ 40 | – | – | 157 | 186 | – |
| CCCC(=O)Oc1c2cccc(OC3OC(C)C4OC(c5ccco5)OC4C3OC3OC(C)C(O)C(OC)C3O)c2c2oc(=O)c3c(C)ccc4oc(=O)c1c2c43 (centres unmarked) [compound 228] | ≥ 60 | – | 140 | – | – | – |
| COC1C(O)C(C)OC(OC2C(Oc3cccc4c(OC(=O)C(C)CNC(C)C)c5c(=O)oc6ccc(C)c7c(=O)oc(c34)c5c67)OC(C)C3OC(c4ccccc4)OC32)C1O (stereo not drawn) [Compound No. 2, 6-O-(N-Isopropyl-β-Amino-Isobutyryl)-3',4'-O-Benzylidene-Chartreusin Hydrochloride] | ≥ 40 | – | – | – | 184 | 216 |
| COC1C(O)C(C)OC(OC2C(Oc3cccc4c(OC(=O)CC(C)C)c5c(=O)oc6ccc(C)c7c(=O)oc(c34)c5c67)OC(C)C3OC(c4cccc(Br)c4)OC32)C1O (centres unmarked) [Compound No. 163] | ≥ 80 | 227 | – | – | – | 156 |
| COC1C(O)C(C)OC(OC2C(Oc3cccc4c(OC(=O)CCNC(C)=O)c5c(=O)oc6ccc(C)c7c(=O)oc(c34)c5c67)OC(C)C3OC(c4ccccc4)OC32)C1O (centres unmarked) [Compound No. 38] | ≥ 40 | – | – | – | 203 | – |
| COC1C(O)C(C)OC(OC2C(Oc3cccc4c(OC(=O)C(Cc5ccccc5)NC(=O)OCc5ccccc5)c5c(=O)oc6ccc(C)c7c(=O)oc(c34)c5c67)OC(C)C3OC(c4ccc(Cl)cc4)OC32)C1O (centres unmarked) [compound 127] | ≥ 40 | – | – | – | 130 | – |
| COC1C(O)C(C)OC(OC2C(Oc3cccc4c(OC(=O)CC(C)C)c5c(=O)oc6ccc(C)c7c(=O)oc(c34)c5c67)OC(C)C3OC(c4ccc(F)cc4)OC32)C1O (centres unmarked) [Compound No. 159] | ≥ 40 | 216 | – | – | – | 171 |
| COC1C(O)C(C)OC(OC2C(Oc3cccc4c(OC(=O)CSc5ccccc5)c5c(=O)oc6ccc(C)c7c(=O)oc(c34)c5c67)OC(C)C3OC(C)(C)OC32)C1O (centres unmarked) [Compound No. 174] | ≥ 80 | 198 | – | – | – | 148 |
| COC1C(O)C(C)OC(OC2C(Oc3cccc4c(OC(=O)C(NC(=O)CNC(=O)CNC(=O)OCc5ccccc5)C(C)C)c5c(=O)oc6ccc(C)c7c(=O)oc(c34)c5c67)OC(C)C3OC(c4ccccc4)OC32)C1O (centres unmarked) [compound 115] | ≥ 40 | – | – | – | 135 | – |
| COC1C(O)C(C)OC(OC2C(Oc3cccc4c(OC(=O)CCCCCBr)c5c(=O)oc6ccc(C)c7c(=O)oc(c34)c5c67)OC(C)C3OC(C)(C)OC32)C1O (centres unmarked) [compound 235] | ≥ 60 | – | – | – | – | 145 |
| COC1C(O)C(C)OC(OC2C(Oc3cccc4c(OC(=O)C(C)CNC(=O)CN)c5c(=O)oc6ccc(C)c7c(=O)oc(c34)c5c67)OC(C)C3OC(c4ccccc4)OC32)C1O (centres unmarked) [Compound No. 3] | ≥ 40 | – | – | – | 150 | 192 |
| COC1C(O)C(C)OC(OC2C(Oc3cccc4c(OC(=O)CCNC=O)c5c(=O)oc6ccc(C)c7c(=O)oc(c34)c5c67)OC(C)C3OC(c4cccc(F)c4)OC32)C1O (centres unmarked) [Compound No. 46] | ≥ 80 | 210 | – | – | – | 157 |
| COc1ccc(C(=O)Oc2c3cccc(O[C@@H]4O[C@H](C)[C@@H]5OC(C)(C)O[C@@H]5[C@H]4O[C@H]4O[C@H](C)[C@H](O)[C@H](OC)[C@H]4O)c3c3oc(=O)c4c(C)ccc5oc(=O)c2c3c54)cc1 [compound 208] | ≥ 80 | 192 | – | – | – | 136 |
| COC1C(O)C(C)OC(OC2C(Oc3cccc4c(OC(=O)CCCCCCCNC(=O)C(F)(F)F)c5c(=O)oc6ccc(C)c7c(=O)oc(c34)c5c67)OC(C)C3OC(c4ccccc4)OC32)C1O (centres unmarked) [compound 77] | ≥ 40 | – | – | – | 135 | 186 |
| COC1C(O)C(C)OC(OC2C(Oc3cccc4c(OC(=O)CC[S+](C)[O-])c5c(=O)oc6ccc(C)c7c(=O)oc(c34)c5c67)OC(C)C3OC(c4ccccc4)OC32)C1O (centres unmarked) [Compound No. 150] | ≥ 40 | – | – | – | 200 | 205 |
| COC(=O)c1ccc(C(=O)Oc2c3cccc(O[C@@H]4O[C@H](C)[C@@H]5OC(C)(C)O[C@@H]5[C@H]4O[C@H]4O[C@H](C)[C@H](O)[C@H](OC)[C@H]4O)c3c3oc(=O)c4c(C)ccc5oc(=O)c2c3c54)cc1 [compound 207] | ≥ 80 | 192 | – | – | – | 130 |
| CO[C@H]1[C@@H](O)[C@@H](C)O[C@H](O[C@H]2[C@H](Oc3cccc4c(OC(=O)CCC(=O)c5ccc(F)cc5)c5c(=O)oc6ccc(C)c7c(=O)oc(c34)c5c67)O[C@H](C)[C@@H]3OC(C)(C)O[C@@H]32)[C@@H]1O [compound 206] | ≥ 80 | 180 | – | – | – | 139 |
| COC1C(O)C(C)OC(OC2C(Oc3cccc4c(OC(=O)c5ccccc5)c5c(=O)oc6ccc(C)c7c(=O)oc(c34)c5c67)OC(C)C3OC(C)(C)OC32)C1O (centres unmarked) [compound 242] | ≥ 40 | – | – | – | 137 | – |
| COC1C(O)C(C)OC(OC2C(Oc3cccc4c(OC(=O)CCNC(=O)c5ccccc5)c5c(=O)oc6ccc(C)c7c(=O)oc(c34)c5c67)OC(C)C3OC(c4ccc(Br)cc4)OC32)C1O (centres unmarked) [compound 123] | ≥ 40 | – | – | – | – | 135 |
| COC1C(O)C(C)OC(OC2C(Oc3cccc4c(OC(=O)C(C)C)c5c(=O)oc6ccc(C)c7c(=O)oc(c34)c5c67)OC(C)C3OC(C)(C)OC32)C1O (centres unmarked) [compound 222] | ≥ 80 | 162 | – | – | – | 144 |
| COC1C(O)C(C)OC(OC2C(Oc3cccc4c(OC(=O)CCCCCN)c5c(=O)oc6ccc(C)c7c(=O)oc(c34)c5c67)OC(C)C3OC(C)(C)OC32)C1O (centres unmarked) [compound 59] | ≥ 100 | 218 | – | – | – | 146 |
| CCC1(C)O[C@H]2[C@@H](O1)[C@@H](C)O[C@@H](Oc1cccc3c(OC(=O)CC(C)NC(=O)C(F)(F)F)c4c(=O)oc5ccc(C)c6c(=O)oc(c13)c4c56)[C@@H]2O[C@H]1O[C@H](C)[C@H](O)[C@H](OC)[C@H]1O (some centres unmarked) [compound 131] | ≥ 100 | 148 | – | – | – | – |
| COC1C(O)C(C)OC(OC2C(Oc3cccc4c(OC(=O)CCCNC(=O)C(F)(F)F)c5c(=O)oc6ccc(C)c7c(=O)oc(c34)c5c67)OC(C)C3OC(c4ccccc4)OC32)C1O (centres unmarked) [Compound No. 24] | ≥ 40 | – | – | – | 161 | 223 |
| COC1C(O)C(C)OC(OC2C(Oc3cccc4c(OC(=O)C(C)CNC(=O)C(F)(F)F)c5c(=O)oc6ccc(C)c7c(=O)oc(c34)c5c67)OC(C)C3OC(C)(C)OC32)C1O (centres unmarked) [compound 85] | ≥ 100 | 157 | – | – | – | – |
| COC1C(O)C(C)OC(OC2C(Oc3cccc4c(OC(=O)CC(C)NC(=O)C(F)(F)F)c5c(=O)oc6ccc(C)c7c(=O)oc(c34)c5c67)OC(C)C3OC(c4ccccc4Cl)OC32)C1O (centres unmarked) [compound 94] | ≥ 80 | 183 | – | – | – | – |
| COC1C(O)C(C)OC(OC2C(Oc3cccc4c(OC(=O)CCNC(=O)c5ccccc5)c5c(=O)oc6ccc(C)c7c(=O)oc(c34)c5c67)OC(C)C3OC(c4cccc(F)c4)OC32)C1O (stereo not drawn) [Compound No. 47, 6-O-(N-benzoyl-β-alanyl)-3',4'-O-(m-fluorobenzylidene)-chartreusin] | ≥ 80 | 210 | – | – | – | 150 |
| C=CCCC(=O)Oc1c2cccc(O[C@@H]3O[C@H](C)[C@@H]4OC(c5ccccc5)O[C@@H]4[C@H]3O[C@H]3O[C@H](C)[C@H](O)[C@H](OC)[C@H]3O)c2c2oc(=O)c3c(C)ccc4oc(=O)c1c2c43 (some centres unmarked) [compound 192] | ≥ 40 | – | – | 153 | 199 | – |
